This experiment deals with T1, GhHxk9.
T1 construct: codon-optimized synthetic gene, E. coli BL21(DE3), pET-28-14His-bdSumo, tag cut off by bdSENP1, tagless wild-type; 51 kDa; printed residues: L398-K404 TLKDGEK, S132-R141 SEGLHFSPDR
Put plainly: coupled assay with E. coli glucose-6-phosphate dehydrogenase, absorbance at […] nm. The class given is biochemical, Gossypium hirsutum. The note with it: 1 mM ATP, 10 mM MgCl2, 1 mM NADP+, 100 mM Tris pH 7.5, 30 °C; read-out: apparent Km.

As to `OC[C@H]1OC(O)[C@H](O)[C@@H](O)[C@@H]1O` (stereo partly drawn) [D-glucose], the Michaelis-Menten constant (Km) is 37 ± 19.8 µM.
